Like-named read-outs stand apart in the source and are kept apart here.
What was measured:
human CXCR2 = molecular target: T1, human CXCR2 (Homo sapiens, UniProt P25025); test: CXCL8-induced calcium mobilization assay, U87.CD4 cells expressing CXCR2; assay type: cell-based
T1 construct: expressed in transfected cells
T1 sequence (P25025 1-360): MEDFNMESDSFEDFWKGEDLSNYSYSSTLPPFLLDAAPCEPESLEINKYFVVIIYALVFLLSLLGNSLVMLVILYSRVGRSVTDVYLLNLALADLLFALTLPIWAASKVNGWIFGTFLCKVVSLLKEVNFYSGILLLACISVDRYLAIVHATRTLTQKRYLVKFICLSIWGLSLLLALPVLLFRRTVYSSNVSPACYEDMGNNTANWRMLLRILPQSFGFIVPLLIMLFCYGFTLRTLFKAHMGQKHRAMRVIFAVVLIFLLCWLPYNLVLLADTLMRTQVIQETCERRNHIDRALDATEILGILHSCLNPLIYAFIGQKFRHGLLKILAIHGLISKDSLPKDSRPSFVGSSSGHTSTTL
Protocol: (§1) U87.CD4 cells that stably express either human CCR7, CXCR2, CCR5 or CXCR4 were seeded (20,000 cells/well) in gelatin-coated black-walled polystyrene 96-well plates with clear bottom and incubated overnight at 37°C and 5% CO2. […] Culture medium was removed, and cells were incubated for 45 min at room temperature in the dark. […] Exactly the same protocol was used to record calcium responses in Chinese hamster ovary (CHO)-K1 cells, upon stimulation with adenosine triphosphate (ATP, purchased from Sigma).

human CXCR4 = molecular target: T2, human CXCR4 (Homo sapiens, UniProt P61073); test: CXCL12-induced calcium mobilization assay, U87.CD4 cells expressing CXCR4; assay type: cell-based; details: for effect on CXCR4 mediated calcium response: result in words
T2 construct: expressed in transfected cells
T2 sequence (P61073 whole entry): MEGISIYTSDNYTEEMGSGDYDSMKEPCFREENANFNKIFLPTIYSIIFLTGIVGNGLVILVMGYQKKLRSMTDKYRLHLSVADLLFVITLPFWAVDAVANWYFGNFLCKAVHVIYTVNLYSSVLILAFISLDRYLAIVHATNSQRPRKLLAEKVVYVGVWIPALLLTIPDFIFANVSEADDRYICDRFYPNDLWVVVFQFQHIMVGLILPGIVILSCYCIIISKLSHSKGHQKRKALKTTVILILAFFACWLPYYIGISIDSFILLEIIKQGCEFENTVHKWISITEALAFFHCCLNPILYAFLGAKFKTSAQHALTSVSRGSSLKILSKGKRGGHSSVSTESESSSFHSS
Protocol: U87.CD4 cells that stably express either human CCR7, CXCR2, CCR5 or CXCR4 were seeded (20,000 cells/well) in gelatin-coated black-walled polystyrene 96-well plates with clear bottom and incubated overnight at 37°C and 5% CO2. The next day, a fluorescent Ca^2+-sensitive dye solution (Fluo-2 AM) was prepared as described before ([Claes et al., 2018]). Culture medium was removed, and cells were incubated for 45 min at room temperature in the dark. Meanwhile, 96-well polypropylene plates containing 5-fold concentrated compound dilutions and 5-fold concentrated solution of chemokine ligands (CCL19, CXCL8, LD78-β, CXCL12, respectively; all purchased from PeproTech) were prepared for use with the FLIPR Tetra device (Molecular Devices) as described before ([Claes et al., 2018]). The antagonistic properties of the compounds were calculated based on their capacity to inhibit the Ca^2+ release induced by a fixed concentration of chemokine (i.e. 50 ng/mL final concentration for CCL19, CXCL8 and CXCL12 and 100 ng/ml for LD78-β), as described ([Claes et al., 2018]). Exactly the same protocol was used to record calcium responses in Chinese hamster ovary (CHO)-K1 cells, upon stimulation with adenosine triphosphate (ATP, purchased from Sigma).

human CCR7 [1] = molecular target: T3, human CCR7 (Homo sapiens, UniProt P32248); test: CCR7 competition binding assay with CCL19^AF647 (flow cytometry, whole cells); details: for inhibition of CCL19^AF647 binding / CCR7 affinity: result in words; for IC50: inhibition of CCL19^AF647 binding, Mean ± SD of four independent experiments
T3 construct: expressed in transfected cells
T3 sequence (P32248 25-378): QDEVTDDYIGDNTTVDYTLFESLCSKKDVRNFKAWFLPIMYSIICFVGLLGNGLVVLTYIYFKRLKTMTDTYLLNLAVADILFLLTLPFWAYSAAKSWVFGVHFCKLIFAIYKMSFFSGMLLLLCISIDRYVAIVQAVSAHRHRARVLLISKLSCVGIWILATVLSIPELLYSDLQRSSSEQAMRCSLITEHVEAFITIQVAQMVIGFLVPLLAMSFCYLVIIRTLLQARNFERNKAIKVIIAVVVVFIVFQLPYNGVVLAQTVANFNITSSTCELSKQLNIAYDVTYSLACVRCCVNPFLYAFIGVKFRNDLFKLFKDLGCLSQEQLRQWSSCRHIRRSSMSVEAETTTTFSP
Protocol: In brief, U87.CD4.CCR7 cells were pre-incubated with compound (at different concentrations) in 150 μL assay buffer [Hank’s balanced salt solution (HBSS), 20 mM HEPES and 0.5% Fetal Calf Serum] for 15 min at room temperature (RT) in the dark. Afterwards, 50 μL of CCL19^AF647 was added (25 ng/mL final concentration) and samples were incubated for another 30 min at RT, protected from light. Then, cells were washed twice with assay buffer and fixed in 1% paraformaldehyde in Dulbecco’s phosphate-buffered saline (DPBS).
Samples were immediately analyzed by flow cytometry (FACS Canto II, BD). Data were analysed using Flowjo. The percentage inhibition of CCL19^AF647 binding was calculated according to formula {1—[(MFIX–MFINC)/(MFIPC–MFINC)]} x 100, where MFIX is the mean fluorescence intensity (MFI) of the compound-treated sample, MFINC the MFI of the negative control (i.e., autofluorescence of untreated and unlabeled cells) and MFIPC the MFI of the positive control (i.e., cells exposed to CCL19^AF647 only). […] For each experiment the stain index (SI) was calculated as the ratio of the separation between MFIPC and MFINC, divided by two times the standard deviation of MFINC.

human CCR7 [2] = molecular target: T3, human CCR7; test: CCL19-induced calcium mobilization assay, U87.CD4 cells expressing CCR7; assay type: cell-based; details: for CCR7 antagonism in calcium mobilization assay: CCL19-induced, result in words
In short: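 U87.CD4 cells stably expressing human CCR7, CXCR2 or CCR5 were seeded at 20,000 cells/well and incubated overnight at 37°C and 5% CO2. Cells were then incubated for 45 min at room temperature in the dark before calcium responses were recorded. CCR7 responses were induced with CCL19 and CXCR2 responses with CXCL8.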

human CCR5 = molecular target: T4, human CCR5 (Homo sapiens, UniProt P51681); test: cell-based
T4 construct: expressed in transfected cells
T4 sequence (P51681 whole entry): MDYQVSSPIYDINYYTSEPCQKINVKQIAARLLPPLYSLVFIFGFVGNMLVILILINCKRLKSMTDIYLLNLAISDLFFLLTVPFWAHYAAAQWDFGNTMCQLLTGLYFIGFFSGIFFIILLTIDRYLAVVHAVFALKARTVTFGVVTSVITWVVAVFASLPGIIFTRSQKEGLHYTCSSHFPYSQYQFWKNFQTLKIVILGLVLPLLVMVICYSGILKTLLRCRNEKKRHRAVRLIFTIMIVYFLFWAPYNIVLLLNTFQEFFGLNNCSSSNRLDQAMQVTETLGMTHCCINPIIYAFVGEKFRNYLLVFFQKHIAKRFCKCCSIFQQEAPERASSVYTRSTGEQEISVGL
Protocol: as §1

[3] = system: ATP-induced Ca2+ release in CHO-K1 cells; test: ATP-induced calcium response in CHO-K1 cells; details: ATP 10 µM final concentration, Fluo-2
Text: Using CHO-K1 cells, exactly the same experimental set-up as for the chemokine receptor expressing U87 cells was applied, essentially including the same fluorescent calcium dye (Fluo-2) for cell loading.

CCR7 = system: CCR7; set-up: method as in Jaeger et al., 2019; details: result in words; ref Jaeger et al., 2019; cited from earlier work
human or murine CCR7 = system: human or murine CCR7; set-up: method as in Hull-Ryde et al., 2018; details: ref Hull-Ryde et al., 2018, cited from earlier work; for IC50: read-out: IC50, β-arrestin recruitment
[4] = classification of tested compounds as decoy or active
[5] = CCL19 induced calcium signaling, read-out: IC50 [μM] block CCL19 induced calcium signaling
[6] = classification as decoy or active on CCR7

Cc1ccc([C@@H](NC2=NS(=O)(=O)N=C2Nc2ccc(C)c(C(=O)N(C)C)c2O)C(C)(C)C)o1 [Cmp2105, reference compound]
inhibition of CXCR2 mediated calcium mobilization (human CXCR2; result in words): inhibited | effect on CXCR4 mediated calcium response (human CXCR4): no (or only very limited) effect

FC(F)(F)c1cc(NC(=S)Nc2cc(C(F)(F)F)cc(C(F)(F)F)c2)cc(C(F)(F)F)c1 [C040, S=C(NC1=CC(C(F)(F)F)=CC(C(F)(F)F)=C1)NC2=CC(C(F)(F)F)=CC(C(F)(F)F)=C2]
activity in CCR7 competition binding assay (human CCR7 [1]; highest concentration tested (25 µM)): inactive | inhibition of CCL19^AF647 binding / CCR7 affinity (human CCR7 [1]): completely devoid of activity | IC50 [μM] block CCL19 induced calcium signaling (human CCR7 [2]; CCL19-induced calcium signaling): assay interference | IC50 (human CCR7 [2]; inhibition of CCL19 induced intracellular calcium flux, Mean ± SD of at least three independent experiments, read-out: Calcium assay IC50): 3 to 18 µM | IC50 (human CXCR2; Mean ± SD of at least three independent experiments, read-out: IC50, CXCL8-CXCR2 Ca2+ response): 3 to 18 µM | IC50 (human CXCR4; Mean ± SD of at least three independent experiments, read-out: IC50, CXCL12-CXCR4 Ca2+ response): 3 to 18 µM | IC50 (human CCR5; Mean ± SD of at least three independent experiments, read-out: IC50, LD78-β-CCR5 Ca2+ response): 3 to 18 µM | inhibition of calcium response induced by ATP [3]: dose-dependently inhibit

CCOC(=O)N1CCC(Nc2c(NCCOC)c(=O)c2=O)CC1 [CS-3, Ethyl 4-((2-((2-methoxyethyl)amino)-3,4-dioxocyclobut-1-en-1-yl)amino)piperidine-1-carboxylate, reference compound]
IC50 (human CCR7 [1]): > 50 µM | inhibition of CCL19^AF647 binding / CCR7 affinity (human CCR7 [1]): did not show any CCR7 affinity | IC50 (human CCR7 [2]): > 50 µM | CCR7 antagonism in calcium mobilization assay (human CCR7 [2]): inactive | Decoy – 0 Active – 1 (human CCR7 [2]; [4]): 0 | thermal stabilization of CCR7 (CCR7): hits in the thermofluor stability assay, albeit less potent than cmp2105 and navarixin

CC(C)(C)c1ccc(S(=O)(=O)Nc2ccc(Cl)cc2C(=O)c2cc[n+]([O-])cc2)cc1 [Vercirnon]
thermal stabilization of CCR7 (CCR7): completely lacked the ability to thermally stabilize CCR7

CC[C@@H](Nc1c(Nc2cccc(C(=O)N(C)C)c2O)c(=O)c1=O)c1ccc(C)o1 [Navarixin]
effect on CXCR4 mediated calcium response (human CXCR4): no (or only very limited) effect | effect on CCR5 mediated calcium response (human CCR5; result in words): no (or only very limited) effect

CC(C)CCC[C@@H](C)[C@H]1CC[C@H]2[C@@H]3CC[C@H]4C[C@@H](CCC=C(c5cc(Cl)c(O)c(C(=O)O)c5)c5cc(Cl)c(O)c(C(=O)O)c5)CC[C@]4(C)[C@H]3CC[C@]12C [cosalane]
IC50 (human or murine CCR7; CCL19 used as the natural CCR7 ligand): 0.2 µM | IC50 (human or murine CCR7; CCL21 used as the agonist): 2.7 µM | activity against human versus murine CCR7 (human or murine CCR7; result in words): nearly identical activity against the human and murine CCR7 orthologues

CCOc1ccc(NC(=O)C2CCN(C3=NS(=O)(=O)C(c4ccc(OC)cc4)=C3C)CC2)cc1 [CS-1]
thermal stabilization of CCR7 (CCR7): hits in the thermofluor stability assay, albeit less potent than cmp2105 and navarixin

Maraviroc [reference compound]
CCR7 antagonism in calcium mobilization assay (human CCR7 [2]): absence of activity | Decoy – 0 Active – 1 (human CCR7 [2]; [4]): 0 | thermal stabilization of CCR7 (CCR7): completely lacked the ability to thermally stabilize CCR7

CC1CCc2ccccc2C1NC(=O)CCC(=O)N1CCC(O)CC1 (stereo not drawn) [C221, CC1CCc2ccccc2C1NC(=O)CCC(=O)N1CCC(O)CC1]
IC50 (human CCR7 [2]; [5]): > 50 µM | Decoy – 0 Active – 1 (human CCR7 [2]; [6]): 0

O=C(O)c1nc[nH]c1C(=O)NC(c1ccccc1)c1ccco1 (stereo not drawn) [C190, O=C([O-])c1nc[nH]c1C(=O)NC(c1ccccc1)c1ccco1]
IC50 (human CCR7 [2]; [5]): > 50 µM | Decoy – 0 Active – 1 (human CCR7 [2]; [6]): 0

COCCN(Cc1cccs1)C(=O)N[C@@H](C)c1ccc(C)o1 [C141, COCCN(Cc1cccs1)C(=O)N[C@@H](C)c1ccc(C)o1]
IC50 (human CCR7 [2]; CCL19-induced calcium signaling, read-out: IC50 [μM] block CCL19 induced calcium signaling): > 50 µM | Decoy – 0 Active – 1 (human CCR7 [2]; [4]): 0

O=C1CC(C(=O)N2CCCC2c2ccccc2)CN1Cc1cccnc1 (stereo not drawn) [C228, O=C1CC(C(=O)N2CCCC2c2ccccc2)CN1Cc1cccnc1]
IC50 (human CCR7 [2]; [5]): > 50 µM | Decoy – 0 Active – 1 (human CCR7 [2]; [6]): 0

COCCNc1c(Nc2cccc(C#N)c2)c(=O)c1=O [CS-2, 3-((2-((2-Methoxyethyl)amino)-3,4-dioxocyclobut-1-en-1-yl)amino)benzonitrile, reference compound]
IC50 (human CCR7 [1]): > 50 µM | inhibition of CCL19^AF647 binding / CCR7 affinity (human CCR7 [1]): did not show any CCR7 affinity | IC50 (human CCR7 [2]): > 50 µM | CCR7 antagonism in calcium mobilization assay (human CCR7 [2]): inactive | Decoy – 0 Active – 1 (human CCR7 [2]; [4]): 0 | thermal stabilization of CCR7 (CCR7): hits in the thermofluor stability assay, albeit less potent than cmp2105 and navarixin

O=C(NCC(C1CC1)C1CC1)N1CCC(O)(C(F)(F)F)CC1 [C166, O=C(NCC(C1CC1)C1CC1)N1CCC(O)(C(F)(F)F)CC1]
IC50 (human CCR7 [2]; [5]): > 50 µM | Decoy – 0 Active – 1 (human CCR7 [2]; [6]): 0
